In US20040096481A1, “Pet food compositions having electrostatically charged ingredient” (priority 2002, published 2004):

Assay: Effect of negatively charged amino acid solutions on integrity of cat hair (scan microscope)
Conditions: 0.40 g cat hair in 100 g solution, 100° F., 24 hours, 810× magnification; for degree of hair damage, 0.125% solution: 0.125% amino acid solution diluted from 1.0% solution adjusted to pH 11.3
Experimental: In this example, various negatively charged amino acid solutions were prepared for testing on cat hair to determine how the solution affected the integrity of the hair. First, a 1.0% amino acid solution was prepared by mixing 5.0 g amino acid with 495 g of water. The resulting pH value of each amino acid solution at this point differed, based largely upon the different pK values for each amino acid. A sufficient quantity of sodium hydroxide solution (50.0%) was added to the 1.0% amino acid solution to adjust the pH to 11.3. Weaker amino acid solutions (0.5%, 0.25%, and 0.125%) were subsequently prepared by dilution of the 1.0% solution.
Approximately 0.40 g of cat hair were mixed with 100 g samples of each respective amino acid solution. The cat hair and amino acid solution were kept at 100° F. for 24 hours. Photographs of the cat hairs were taken with a Topcon Technology Company Model ISI-X408 electrical scan microscope at 810× magnification and the degree of hair damage and loss of identifying characteristics was noted.

Compound	degree of hair damage, 0.125% solution	further results
N[C@@H](CS)C(=O)O [Cysteine]	No damage	–
C[C@H](N)C(=O)O [Alanine]	Cuticle removed	–
N[C@@H](CCC(=O)O)C(=O)O [Glutamic acid]	Cuticle removed	–
NCCCC[C@H](N)C(=O)O [Lysine]	No damage	–
N[C@@H](CC(=O)O)C(=O)O [Aspartic acid]	Cuticle removed	–
NCC(=O)O [Glycine]	Cuticle removed	degree of hair damage, 0.125% solution (listed as glycine): portions of the cuticle layer have been removed thereby exposing the inner cortex layer; degree of hair damage, 0.25% solution (0.25% amino acid solution diluted from 1.0% solution adjusted to pH 11.3): cuticle 14 has separated thereby forming a channel and exposing the hair cortex; degree of hair damage, 0.5% solution (0.5% amino acid solution diluted from 1.0% solution adjusted to pH 11.3): Portions of the hair cortex 18 have been completely dissolved; degree of hair damage, 1.0% solution (1.0% amino acid solution adjusted to pH 11.3): cuticle has been removed thereby exposing the hair cortex
CSCCC(N)C(=O)O (racemic) [DL-methionine]	No damage	–
O=C(O)[C@@H]1CCCN1 [Proline]	Cuticle removed	–
